The values below are quoted from earlier work in PMC3783256 (Marine Drugs, 2004).

This data set deals with RyR1-FKBP12 complex (Oryctolagus cuniculus, UniProt P11716). The note with it: read-out: EC50, weak agonists of the receptor; ref 8a.
Chain of RyR1-FKBP12 complex (P11716 whole entry): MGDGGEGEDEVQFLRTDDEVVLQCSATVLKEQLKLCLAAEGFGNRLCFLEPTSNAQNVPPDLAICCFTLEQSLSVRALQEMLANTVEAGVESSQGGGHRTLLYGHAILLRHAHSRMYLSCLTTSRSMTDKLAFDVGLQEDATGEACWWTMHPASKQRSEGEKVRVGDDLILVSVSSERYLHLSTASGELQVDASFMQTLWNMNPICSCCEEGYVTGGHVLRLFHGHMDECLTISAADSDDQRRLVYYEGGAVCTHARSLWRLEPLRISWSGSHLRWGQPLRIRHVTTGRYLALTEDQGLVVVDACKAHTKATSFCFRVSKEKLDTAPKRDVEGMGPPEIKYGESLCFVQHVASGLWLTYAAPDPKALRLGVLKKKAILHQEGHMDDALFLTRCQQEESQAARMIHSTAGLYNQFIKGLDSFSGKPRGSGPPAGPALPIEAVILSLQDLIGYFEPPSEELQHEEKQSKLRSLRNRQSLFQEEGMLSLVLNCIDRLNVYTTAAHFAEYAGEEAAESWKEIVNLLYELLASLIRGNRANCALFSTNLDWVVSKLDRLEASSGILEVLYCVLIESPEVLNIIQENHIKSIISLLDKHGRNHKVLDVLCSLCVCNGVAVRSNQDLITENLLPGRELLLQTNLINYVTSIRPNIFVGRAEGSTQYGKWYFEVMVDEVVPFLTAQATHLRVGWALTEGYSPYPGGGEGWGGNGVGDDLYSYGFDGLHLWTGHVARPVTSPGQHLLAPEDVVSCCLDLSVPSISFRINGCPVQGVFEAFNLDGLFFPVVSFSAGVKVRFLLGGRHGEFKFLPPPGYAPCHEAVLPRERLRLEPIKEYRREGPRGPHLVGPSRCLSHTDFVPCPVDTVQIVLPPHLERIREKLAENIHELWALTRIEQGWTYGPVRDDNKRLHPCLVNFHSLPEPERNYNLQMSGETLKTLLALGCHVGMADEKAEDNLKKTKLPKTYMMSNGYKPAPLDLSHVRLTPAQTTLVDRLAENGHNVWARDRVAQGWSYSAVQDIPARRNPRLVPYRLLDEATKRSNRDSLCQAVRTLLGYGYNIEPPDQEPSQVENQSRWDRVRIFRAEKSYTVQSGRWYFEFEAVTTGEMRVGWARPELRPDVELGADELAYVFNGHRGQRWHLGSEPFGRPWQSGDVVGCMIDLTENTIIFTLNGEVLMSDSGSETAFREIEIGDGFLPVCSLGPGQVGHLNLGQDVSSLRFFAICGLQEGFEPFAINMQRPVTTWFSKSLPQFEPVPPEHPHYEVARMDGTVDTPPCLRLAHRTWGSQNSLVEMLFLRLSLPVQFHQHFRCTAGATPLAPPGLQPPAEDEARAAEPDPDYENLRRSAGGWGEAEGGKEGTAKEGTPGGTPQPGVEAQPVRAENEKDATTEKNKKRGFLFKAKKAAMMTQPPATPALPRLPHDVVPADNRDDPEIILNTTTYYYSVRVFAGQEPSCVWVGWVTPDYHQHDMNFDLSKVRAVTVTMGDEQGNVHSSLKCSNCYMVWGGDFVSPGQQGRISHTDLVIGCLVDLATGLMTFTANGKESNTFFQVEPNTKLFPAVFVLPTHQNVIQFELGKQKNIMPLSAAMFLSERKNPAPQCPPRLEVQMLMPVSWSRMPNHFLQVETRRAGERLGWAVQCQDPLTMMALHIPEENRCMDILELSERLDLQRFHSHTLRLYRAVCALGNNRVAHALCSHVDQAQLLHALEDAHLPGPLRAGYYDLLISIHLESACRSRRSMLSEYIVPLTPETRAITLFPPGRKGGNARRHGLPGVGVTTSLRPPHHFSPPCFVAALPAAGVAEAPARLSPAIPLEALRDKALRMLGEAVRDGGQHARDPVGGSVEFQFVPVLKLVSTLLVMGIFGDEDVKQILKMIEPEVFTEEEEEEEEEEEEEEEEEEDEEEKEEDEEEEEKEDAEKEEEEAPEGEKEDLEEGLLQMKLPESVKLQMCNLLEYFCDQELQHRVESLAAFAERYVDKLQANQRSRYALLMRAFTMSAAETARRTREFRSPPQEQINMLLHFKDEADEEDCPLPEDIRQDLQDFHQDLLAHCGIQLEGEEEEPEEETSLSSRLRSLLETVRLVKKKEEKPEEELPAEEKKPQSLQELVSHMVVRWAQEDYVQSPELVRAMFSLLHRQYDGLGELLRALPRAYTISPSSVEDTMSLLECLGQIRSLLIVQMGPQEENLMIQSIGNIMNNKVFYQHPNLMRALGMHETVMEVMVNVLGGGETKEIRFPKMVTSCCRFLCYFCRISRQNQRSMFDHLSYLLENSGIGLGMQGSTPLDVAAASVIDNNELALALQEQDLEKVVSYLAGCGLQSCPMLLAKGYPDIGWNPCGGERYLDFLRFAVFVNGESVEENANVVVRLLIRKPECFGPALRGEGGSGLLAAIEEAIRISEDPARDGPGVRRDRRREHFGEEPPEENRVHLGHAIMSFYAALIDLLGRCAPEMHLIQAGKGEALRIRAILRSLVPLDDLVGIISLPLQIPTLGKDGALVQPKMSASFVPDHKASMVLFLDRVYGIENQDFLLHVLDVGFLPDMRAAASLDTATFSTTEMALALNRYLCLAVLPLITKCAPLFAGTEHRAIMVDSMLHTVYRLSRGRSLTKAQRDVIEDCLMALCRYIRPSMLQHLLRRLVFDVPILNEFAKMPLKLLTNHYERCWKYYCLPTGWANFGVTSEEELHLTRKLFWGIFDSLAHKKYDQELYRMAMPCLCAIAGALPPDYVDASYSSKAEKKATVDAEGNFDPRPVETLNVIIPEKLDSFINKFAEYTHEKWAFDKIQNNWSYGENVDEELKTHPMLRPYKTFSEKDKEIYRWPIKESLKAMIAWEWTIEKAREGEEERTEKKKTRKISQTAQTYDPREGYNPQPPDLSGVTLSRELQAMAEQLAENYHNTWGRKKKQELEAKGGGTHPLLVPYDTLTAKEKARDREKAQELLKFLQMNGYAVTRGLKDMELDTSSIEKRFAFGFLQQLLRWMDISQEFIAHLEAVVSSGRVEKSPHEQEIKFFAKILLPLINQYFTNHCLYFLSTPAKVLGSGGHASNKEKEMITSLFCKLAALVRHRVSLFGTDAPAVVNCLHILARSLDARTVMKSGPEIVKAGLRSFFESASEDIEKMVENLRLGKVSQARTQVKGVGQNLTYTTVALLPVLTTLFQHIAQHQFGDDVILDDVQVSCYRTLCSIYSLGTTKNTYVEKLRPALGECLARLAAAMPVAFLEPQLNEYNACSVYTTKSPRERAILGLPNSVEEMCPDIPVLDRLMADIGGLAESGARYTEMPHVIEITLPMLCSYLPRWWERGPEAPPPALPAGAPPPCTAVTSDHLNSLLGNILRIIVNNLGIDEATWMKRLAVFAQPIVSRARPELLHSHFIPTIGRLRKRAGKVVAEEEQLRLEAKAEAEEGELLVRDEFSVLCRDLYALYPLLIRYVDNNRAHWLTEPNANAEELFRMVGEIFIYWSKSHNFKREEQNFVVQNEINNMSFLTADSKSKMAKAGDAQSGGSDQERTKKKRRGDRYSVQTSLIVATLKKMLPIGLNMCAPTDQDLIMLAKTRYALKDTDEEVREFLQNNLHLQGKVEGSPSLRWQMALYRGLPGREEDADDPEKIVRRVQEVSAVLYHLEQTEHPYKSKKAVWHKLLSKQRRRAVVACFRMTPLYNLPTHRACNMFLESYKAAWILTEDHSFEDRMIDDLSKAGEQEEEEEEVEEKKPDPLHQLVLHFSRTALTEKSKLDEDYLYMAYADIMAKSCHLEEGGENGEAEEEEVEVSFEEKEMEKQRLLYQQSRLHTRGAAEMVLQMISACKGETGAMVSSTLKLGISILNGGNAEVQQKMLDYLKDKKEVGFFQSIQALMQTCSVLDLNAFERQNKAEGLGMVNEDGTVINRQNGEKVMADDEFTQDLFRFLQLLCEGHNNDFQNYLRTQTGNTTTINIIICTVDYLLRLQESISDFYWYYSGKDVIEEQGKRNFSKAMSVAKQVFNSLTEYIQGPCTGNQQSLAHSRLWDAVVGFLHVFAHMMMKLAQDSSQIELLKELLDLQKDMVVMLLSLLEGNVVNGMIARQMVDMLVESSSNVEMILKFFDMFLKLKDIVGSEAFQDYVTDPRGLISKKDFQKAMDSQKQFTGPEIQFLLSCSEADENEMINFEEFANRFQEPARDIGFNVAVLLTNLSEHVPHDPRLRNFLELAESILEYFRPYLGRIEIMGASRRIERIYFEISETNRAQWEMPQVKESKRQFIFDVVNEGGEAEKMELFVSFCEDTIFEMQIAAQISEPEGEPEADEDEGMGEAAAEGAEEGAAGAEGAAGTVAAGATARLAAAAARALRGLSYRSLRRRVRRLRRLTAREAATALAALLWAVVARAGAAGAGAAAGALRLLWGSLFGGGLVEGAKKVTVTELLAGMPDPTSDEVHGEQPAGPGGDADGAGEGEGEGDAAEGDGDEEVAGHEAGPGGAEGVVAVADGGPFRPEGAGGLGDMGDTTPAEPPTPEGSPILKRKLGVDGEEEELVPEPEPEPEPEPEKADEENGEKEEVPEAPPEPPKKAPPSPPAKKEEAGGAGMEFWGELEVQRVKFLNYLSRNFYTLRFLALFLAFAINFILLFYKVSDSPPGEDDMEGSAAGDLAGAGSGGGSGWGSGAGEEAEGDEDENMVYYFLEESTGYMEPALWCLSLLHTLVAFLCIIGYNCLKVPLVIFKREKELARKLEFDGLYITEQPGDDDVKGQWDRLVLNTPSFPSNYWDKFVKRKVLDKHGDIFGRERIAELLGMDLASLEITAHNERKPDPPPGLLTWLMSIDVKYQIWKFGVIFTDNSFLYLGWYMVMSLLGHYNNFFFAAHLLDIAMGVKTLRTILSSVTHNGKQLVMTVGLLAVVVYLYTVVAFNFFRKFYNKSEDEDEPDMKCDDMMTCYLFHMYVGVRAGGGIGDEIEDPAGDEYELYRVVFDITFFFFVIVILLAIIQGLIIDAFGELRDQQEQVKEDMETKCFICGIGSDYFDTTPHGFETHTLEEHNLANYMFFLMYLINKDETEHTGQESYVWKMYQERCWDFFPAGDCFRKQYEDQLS
Chain of RyR1-FKBP12 complex (P62943 2-108 partner limits assumed): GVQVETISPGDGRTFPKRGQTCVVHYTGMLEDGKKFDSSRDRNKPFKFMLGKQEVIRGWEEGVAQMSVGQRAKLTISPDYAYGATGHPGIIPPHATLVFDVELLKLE

Usually EC50 stands for the concentration needed to bring the measured effect to its halfway point. On to 15,34-O-di-sulfatobastadin-7, for which the EC50 is 13.6 µM.
